IC50 data for 22 compounds are collected here from patent publication US11542249B2, “BTK inhibitor compounds” (Eli Lilly and Company, priority 2017, dated 2023).

One experiment has as its target human EGFR (Homo sapiens (Human), UniProt P00533). Kind of experiment: EGFR LANTHASCREEN Eu Kinase Binding Assay. Conditions: IC50 value ± standard deviation; truncated GST-labeled EGFR, kinase tracer 199; read-out: hEGFR Rel IC50. How it is done:
(§1) BTK and EGFR in Vitro Assays:
(§2) The BTK and EGFR biochemical assays utilize LANTHASCREEN® Eu Kinase Binding Assays from Thermo Fisher Scientific, measuring the binding of the kinase with a […] tracer. The assay buffer consists of 50 mM HEPES pH 7.5, 0.01% BRU™-35, 10 mM MgCl2, 1 mM EGTA, and 1 mM DTT. The test compounds are diluted and added to the assay plate with a Labcyte ECHO® 555 liquid handler. The compounds are tested in 10 point dose response curves (100 μM-0.005 μM) with a maximum DMSO concentration of 1%. The assays are performed in 20 μL in low-volume 384-well white proxiplates. For the BTK assay, the concentration of full-length His-labeled BTK in the assay is 5 nM, the Eu-anti-His antibody is 2 nM, and the kinase tracer 236 is 60 nM. For the EGFR assay, the concentration of truncated (amino acids 668-1210) GST-labeled EGFR is 5 nM, the Eu-anti-GST antibody is 2 nM, and the kinase tracer 199 is 10 nM. The components of the assay (compound, enzyme/antibody, tracer) are assembled and incubated for 30 min prior to being read on a Perkin-Elmer EnVision with excitation at 340 nm, tracer emission at 665 nm, and antibody emission at 615 nm. The signal ratio is converted to percent inhibition using the following equation: % Inhibition=100−[(Test Compound−Median Minimum)/(Median Maximum−Median Minimum)×100].

Experiment [1] deals with activated B cells in human whole blood (CD69). Kind of experiment: Human Whole Blood CD69 in vitro assay (B cell activation, flow cytometry). Conditions: IC50 value ± standard deviation, anti-human-IgD-Dextran stimulation, read-out: HWB CD69 Rel IC50. The class given is cell-based. The protocol: Human Whole Blood CD69 in Vitro Assay:
The HWB CD69 assay measures activated B cells in human whole blood using a flow cytometer. Compounds are diluted and added to assay plates with a Labcyte ECHO® 555 liquid handler. Compounds are tested in 10 point dose response curves (20 μM-0.001 μM) in 96-well v-bottom plates with a maximum DMSO concentration of 0.2%. Fresh blood from individual healthy volunteer is mixed with HEPES (0.5 ml HEPES added per 10 ml blood) and 100 μl/well is added to compound plates. The plates are sealed and incubated in a 37° C. incubator for 3 h. Anti-human-IgD-Dextran is added to each well to give a final concentration of 100 ng/ml, mixed, and put back into the incubator. After 1 h, the cells are washed with cold FACS buffer and transferred to a deep well plate. The cells are incubated with anti-human CD69-PE (BIOLEGEND®, clone FN50) and anti-human CD19-APC (BIOLEGEND®, clone HIB19) antibodies on ice for 20 min. The cells are washed and incubated in eBioscience™ 1-step Fix/Lyse solution (10×) at RT to lyse the red blood cells and fix the other cells. The white cells are pelleted and washed in FACS buffer and then brought up in read buffer. The suspended cells are transferred to 96-well round bottom plates and read on an IntelliCyt iQue® Screener Plus flow cytometer. From the SSC (Side Scatter Channel) vs FSC (Forward Scatter Channel) graph, the lymphocytes are identified. Lymphocytes are identified with gated on positive CD19 marker for quantify CD69 (a marker of activated B lymphocytes) MFI (mean fluorescent intensity/cell). The signal ratio is converted to percent inhibition using the following equation: % Inhibition=100−[(Test Compound−Median Min)/(Median Max−Median Min)×100].
(§3) The following Table 1 and Table 2 describes the relative IC50 data vs. human BTK, human EGFR, and human whole blood CD69.
Background: Flow cytometry measures light scatter and fluorescence of single cells or particles in a stream.

The next experiment has as its target human BTK (Homo sapiens (Human), UniProt Q06187). Nature of the experiment: BTK LANTHASCREEN Eu Kinase Binding Assay. The settings on record: IC50 value ± standard deviation; full-length His-labeled BTK, kinase tracer 236; read-out: hBTK Rel IC50. How it is done:
as §1, §2, §3
Background: In TR-FRET formats the signal depends on donor and acceptor labels being close together.

Chain of human BTK (Q06187 whole entry): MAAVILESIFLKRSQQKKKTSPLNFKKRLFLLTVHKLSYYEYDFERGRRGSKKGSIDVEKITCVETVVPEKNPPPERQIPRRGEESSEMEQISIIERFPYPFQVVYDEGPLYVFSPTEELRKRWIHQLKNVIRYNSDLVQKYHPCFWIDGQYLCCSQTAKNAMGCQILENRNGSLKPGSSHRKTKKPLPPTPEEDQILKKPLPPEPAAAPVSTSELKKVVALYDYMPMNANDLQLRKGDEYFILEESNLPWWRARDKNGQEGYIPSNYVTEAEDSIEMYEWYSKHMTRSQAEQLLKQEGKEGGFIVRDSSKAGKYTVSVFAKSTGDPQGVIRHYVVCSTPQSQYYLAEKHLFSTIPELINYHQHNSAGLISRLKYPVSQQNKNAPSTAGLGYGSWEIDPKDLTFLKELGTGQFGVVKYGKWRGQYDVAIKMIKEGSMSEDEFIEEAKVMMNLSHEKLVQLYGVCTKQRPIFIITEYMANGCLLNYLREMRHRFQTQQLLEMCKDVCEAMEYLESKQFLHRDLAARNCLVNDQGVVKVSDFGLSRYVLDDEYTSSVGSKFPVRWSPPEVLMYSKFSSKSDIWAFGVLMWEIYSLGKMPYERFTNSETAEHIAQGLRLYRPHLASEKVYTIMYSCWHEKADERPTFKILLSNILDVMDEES
Chain of human EGFR (P00533 668-1210): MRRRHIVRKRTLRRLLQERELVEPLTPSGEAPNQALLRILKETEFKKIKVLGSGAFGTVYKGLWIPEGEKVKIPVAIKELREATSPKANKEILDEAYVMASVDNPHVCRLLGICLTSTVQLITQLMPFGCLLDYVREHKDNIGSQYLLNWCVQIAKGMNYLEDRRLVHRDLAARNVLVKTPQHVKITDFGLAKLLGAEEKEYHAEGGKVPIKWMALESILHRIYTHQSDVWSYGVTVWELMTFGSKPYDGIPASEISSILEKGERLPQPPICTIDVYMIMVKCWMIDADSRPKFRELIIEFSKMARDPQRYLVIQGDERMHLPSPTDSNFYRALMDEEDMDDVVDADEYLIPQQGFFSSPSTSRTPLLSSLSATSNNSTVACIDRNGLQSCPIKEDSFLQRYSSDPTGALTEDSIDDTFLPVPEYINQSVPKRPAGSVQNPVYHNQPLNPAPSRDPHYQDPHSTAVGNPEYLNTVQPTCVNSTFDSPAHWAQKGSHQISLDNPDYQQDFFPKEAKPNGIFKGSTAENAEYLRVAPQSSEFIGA

Consider `C=CC(=O)N1C[C@@H](Nc2cncc(-c3cnc(Oc4cccc(Cl)c4)nc3)n2)[C@@H]1C` (single isomer, unassigned; isomer 1) [Example 32], for which the IC50 at human EGFR turned out to be 0.194 ± 0.0479 µM; in experiment [1], 0.135 ± 0.0665 µM; on human BTK, 0.00688 ± 0.00137 µM.

`C=CC(=O)N1CC(Nc2cncc(-c3cnc(Oc4cccc(Cl)c4F)nc3)c2)C1` [Example 2, 1-[3-[[5-[2-(3-chloro-2-fluoro-phenoxy)pyrimidin-5-yl]-3-pyridyl]amino]azetidin-1-yl]prop-2-en-1-one]: the IC50 on human EGFR amounted to 0.121 ± 0.0664 µM; in experiment [1] it was 0.141 ± 0.0413 µM; at human BTK it was 0.00689 ± 0.00262 µM.

With `C=CC(=O)N1CC(Nc2cncc(-c3cnc(Oc4cccc(C#N)c4)nc3)c2)C1` [Example 3, 3-[5-[5-[(1-prop-2-enoylazetidin-3-yl)amino]-3-pyridyl]pyrimidin-2-yl]oxybenzonitrile], the IC50 in experiment [1] is 0.595 ± 0.326 µM.

On to `C=CC(=O)N1CC(Nc2cncc(-c3cnc(Oc4cccc(OC(F)F)c4)nc3)c2)C1` [Example 4, 1-[3-[[5-[2-[3-(difluoromethoxy)phenoxy]pyrimidin-5-yl]-3-pyridyl]amino]azetidin-1-yl]prop-2-en-1-one], for which the values for the IC50 (at human EGFR; in experiment [1]; on human BTK) were 0.872 ± 0.456 µM, 0.11 ± 0.0794 µM and 0.00998 ± 0.0043 µM, respectively.

For the compound `C=CC(=O)N1CC[C@H](Nc2cncc(-c3cnc(Oc4cccc(Cl)c4)nc3)c2)C1` [Example 6, 1-[(3S)-3-[[5-[2-(3-chlorophenoxy)pyrimidin-5-yl]-3-pyridyl]amino]pyrrolidin-1-yl]prop-2-en-1-one], the IC50 on human EGFR stood at 5.18 ± 0.441 µM; in experiment [1] it was 0.671 ± 0.236 µM; at human BTK, 0.0724 ± 0.00422 µM.

Turning to `C=CC(=O)N1CC(Nc2cncc(-c3cnc(Oc4cccc(Cl)c4)nc3)c2)C1` [Example 7, 1-[3-[[5-[2-(3-chlorophenoxy)pyrimidin-5-yl]-3-pyridyl]amino]azetidin-1-yl]prop-2-en-1-one], the IC50 on human EGFR came out at 0.129 ± 0.0553 µM; in experiment [1] it was 0.18 ± 0.046 µM; at human BTK, 0.00973 ± 0.00201 µM.

Regarding `C=CC(=O)N1CC(Nc2cncc(-c3cnc(Oc4cccc(C(F)(F)F)c4)nc3)c2)C1` [Example 8, 1-[3-[[5-[2-[3-(trifluoromethyl)phenoxy]pyrimidin-5-yl]-3-pyridyl]amino]azetidin-1-yl]prop-2-en-1-one], the IC50 on human EGFR amounted to 0.724 ± 0.375 µM; in experiment [1], 0.239 ± 0.0345 µM; at human BTK, 0.0231 ± 3.41e-05 µM.

Regarding `C=CC(=O)N1CC(Nc2cncc(-c3cnc(Oc4ccc(F)c(OC(F)F)c4)nc3)c2)C1` [Example 9, 1-[3-[[5-[2-[3-(difluoromethoxy)-4-fluoro-phenoxy]pyrimidin-5-yl]-3-pyridyl]amino]azetidin-1-yl]prop-2-en-1-one], the IC50 on human EGFR came out at 3.76 ± 1.4 µM; in experiment [1], 0.655 ± 0.295 µM; on human BTK, 0.0606 ± 0.000351 µM.

Regarding `C=CC(=O)N1CC(Nc2cncc(-c3cnc(Oc4cccc(OC(F)(F)F)c4)nc3)c2)C1` [Example 10, 1-[3-[[5-[2-[3-(trifluoromethoxy)phenoxy]pyrimidin-5-yl]-3-pyridyl]amino]azetidin-1-yl]prop-2-en-1-one], the IC50 came to 0.263 ± 0.129 µM in experiment [1] and 0.0345 ± 0.00808 µM at human BTK.

On to `C=CC(=O)N1CC(Nc2cncc(-c3cnc(Oc4cccc(F)c4)nc3)c2)C1` [Example 11, 1-[3-[[5-[2-(3-fluorophenoxy)pyrimidin-5-yl]-3-pyridyl]amino]azetidin-1-yl]prop-2-en-1-one], for which the IC50 at human EGFR turned out to be 0.644 ± 0.0618 µM; in experiment [1], 0.242 ± 0.0912 µM; at human BTK, 0.0181 ± 0.00305 µM.

Turning to `C=CC(=O)N1CC(C)(Nc2cncc(-c3cnc(Oc4cccc(Cl)c4)nc3)c2)C1` [Example 12, 1-[3-[[5-[2-(3-chlorophenoxy)pyrimidin-5-yl]-3-pyridyl]amino]-3-methyl-azetidin-1-yl]prop-2-en-1-one], the IC50 on human EGFR was found to be 0.509 ± 0.246 µM; in experiment [1], 0.2 ± 0.0524 µM; at human BTK, 0.00695 ± 0.000395 µM.

Consider `C=CC(=O)N1CC(Nc2cncc(-c3cnc(Oc4ccc(F)c(Cl)c4)nc3)c2)C1` [Example 13, 1-[3-[[5-[2-(3-chloro-4-fluoro-phenoxy)pyrimidin-5-yl]-3-pyridyl]amino]azetidin-1-yl]prop-2-en-1-one], for which the IC50 at human EGFR came to 0.45 ± 0.0532 µM; in experiment [1], 0.715 ± 0.0935 µM; at human BTK, 0.0382 ± 0.0169 µM.

Take `C#Cc1cccc(Oc2ncc(-c3cncc(NC4CN(C(=O)C=C)C4)c3)cn2)c1` [Example 14, 1-[3-[[5-[2-(3-ethynylphenoxy)pyrimidin-5-yl]-3-pyridyl]amino]azetidin-1-yl]prop-2-en-1-one]: the IC50 is 0.242 ± 0.231 µM on human EGFR, 0.299 ± 0.143 µM in experiment [1] and 0.0178 ± 0.00377 µM at human BTK.

With `C=CC(=O)N1CC[C@H](Nc2cncc(-c3cnc(Nc4cccc(Cl)c4)nc3)c2)C1` [Example 15], the IC50 at human EGFR was found to be 1.37 ± 1.21 µM; in experiment [1] it was 0.219 ± 0.086 µM; on human BTK, 0.00601 ± 0.000579 µM.

On to `C=CC(=O)N1CC[C@H](Nc2cncc(-c3cnc(Nc4cccc(OC(F)F)c4)nc3)c2)C1` [Example 16, (S)-1-(3-((5-(2-((3-(difluoromethoxy)phenyl)amino)pyrimidin-5-yl)pyridin-3-yl)amino)pyrrolidin-1-yl)prop-2-en-1-one], for which the IC50 in experiment [1] worked out at 0.118 ± 0.056 µM.

As to `C=CC(=O)N1CC[C@H](Nc2cncc(-c3cnc(Nc4cccc(C)n4)nc3)c2)C1` [Example 17, 1-{(3S)-3-[(5-{2-[(6-methylpyridin-2-yl)amino]pyrimidin-5-yl}pyridin-3-yl)amino]pyrrolidin-1-yl}prop-2-en-1-one], in experiment [1], the IC50 came to 0.242 ± 0.0643 µM.

With `C=CC(=O)N1CC(Nc2cncc(-c3cnc(Nc4cccc(C(F)(F)F)c4)nc3)c2)C1` [Example 18, 1-[3-[[5-[2-[3-(trifluoromethyl)anilino]pyrimidin-5-yl]-3-pyridyl]amino]azetidin-1-yl]prop-2-en-1-one], the IC50 at human EGFR is 0.247 ± 0.0993 µM; in experiment [1], 0.071 ± 0.0128 µM; at human BTK, under 0.005 µM.

As for `C=CC(=O)N1CCC(Nc2cncc(-c3cnc(Nc4cccc(C)n4)nc3)c2)CC1` [Example 20, 1-[4-[[5-[2-[(6-methyl-2-pyridyl)amino]pyrimidin-5-yl]-3-pyridyl]amino]-1-piperidyl]prop-2-en-1-one], the IC50 at human EGFR came to 2.22 ± 0.649 µM; in experiment [1] it was 0.208 ± 0.132 µM; at human BTK it was 0.0169 ± 0.00393 µM.

With `C=CC(=O)N1CCC(Nc2cncc(-c3cnc(Nc4cccc(C(F)(F)F)n4)nc3)c2)CC1` [Example 21, 1-[4-[[5-[2-[[6-(trifluoromethyl)-2-pyridyl]amino]pyrimidin-5-yl]-3-pyridyl]amino]-1-piperidyl]prop-2-en-1-one], the figures for the IC50 (on human EGFR; in experiment [1]; at human BTK) were over 100 µM, 0.16 ± 0.0382 µM and 0.00884 ± 0.00121 µM, respectively.

Consider `C=CC(=O)N1CCC(Nc2cncc(-c3cnc(Nc4ccccn4)nc3)c2)CC1` [Example 22, 1-[4-[[5-[2-(2-pyridylamino)pyrimidin-5-yl]-3-pyridyl]amino]-1-piperidyl]prop-2-en-1-one], for which the IC50 at human EGFR stood at 3.39 ± 2.07 µM; in experiment [1], 0.227 ± 0.0811 µM; on human BTK, 0.031 ± 0.0124 µM.

Consider `CN(C)C/C=C/C(=O)N1CCC(Nc2cncc(-c3cnc(Nc4cccc(Cl)c4)nc3)c2)CC1` [Example 23, (E)-1-[4-[[5-[2-(3-chloroanilino)pyrimidin-5-yl]-3-pyridyl]amino]-1-piperidyl]-4-(dimethylamino)but-2-en-1-one], for which the results for the IC50 (on human EGFR; in experiment [1]; on human BTK) were 26.5 ± 2.88 µM, 0.475 ± 0.166 µM and 0.0241 ± 0.00428 µM, respectively.

For the compound `C=CC(=O)N1CC(Nc2cncc(-c3cnc(Oc4cccc(F)c4)nc3)n2)C1` [Example 25, 1-[3-[[6-[2-(3-fluorophenoxy)pyrimidin-5-yl]pyrazin-2-yl]amino]azetidin-1-yl]prop-2-en-1-one], the IC50 on human EGFR worked out at 1.58 ± 0.11 µM; in experiment [1] it was 0.306 ± 0.0636 µM; on human BTK, 0.0193 ± 0.00328 µM.

One may read the IC50 as the concentration needed to halve the response being measured.
